From EP0837870B1, “SYNTHETIC MODIFICATION TO SPINOSYN COMPOUNDS” (Dow AgroSciences LLC, priority 1995, dated 1997)
Structures can show the parent of a compound that is named as a salt.

Tests used:
Assay type in all cases: in vivo
[1] = test system: two spotted spider mite (Tetranychus urticae); experiment: Activity against two spotted spider mite (TSSM), sprayed infested squash plants; settings: RATE 400 (ppm), three days after treatment, 4320 min
Experimental: (§1) In conducting evaluations of insecticidal activity, each test compound was formulated as a 400 ppm solution, and this solution was then diluted with water to give lesser concentrations. The 400 ppm solution was prepared by combining 19.2 mL of .05% solution of Tween 20 (polyoxyethylene (20) sorbitan monolaurate) in water with a solution of 8 mg of the compound in .8 mL of acetone/EtOH (9/1).
Activity against cotton aphid (Aphis gossypii) and two spotted spider mite (Tetranychus urticae) was evaluated as follows. Golden crookneck squash plants were grown to the expanded cotyledon stage (about 6 to 8 days). The plants were infested with cotton aphids and two spotted spider mites 16 to 24 hours before application of the test material by transfer of infested foliage cut from a stock colony. Immediately prior to spray application of the test material the transfer foliage is removed from the squash plants. The test is run using concentrations of 400 ppm and 50 ppm. The plants are sprayed with test solution using an atomizing sprayer at 17 psi. Both surfaces of the leaves are covered until runoff, and then allowed to dry. Activity of each compound was determined three days after treatment. Activity was rated as a percent based on the mites/aphids present in plants sprayed with solvent alone.

[2] = test system: tobacco budworm (Heliothis virescens); experiment: Activity against tobacco budworm (TBW), sprayed diet cups with eggs
Experimental: as §1
Activity against tobacco budworm (Heliothis virescens) was evaluated as follows. A general purpose lepidoptera artificial diet was diluted to half strength with a 5% non nutritive agar. 8 mL of this diet material was dispensed into each one ounce diet cup. One hour prior to treatment 18 to 20 eggs were dispensed onto the diet surface. The cups were then sprayed with formulated material through a flat-fan nozzle. […] Treated cups were air dried prior to sealing with plastic caps. The cups were held for 6 days at room temperature. Activity was then rated based on the total number of live and dead larvae, and on the size of live larvae.

[3] = test system: Stomoxys calcitrans (stable fly); experiment: Adult stable fly test, serum-saturated dental wick; settings: readings at 24 and 48 hours, which one is reported is not stated; for Percentage of ASF killed at 100 ppm: 100 ppm in bovine serum; for Percentage of ASF killed at 10 ppm: 10 ppm in bovine serum
Experimental: The compound to be evaluated was dissolved in 1 part acetone/1 part ethanol to provide a stock solution of the compound at a concentration of 5,000 ppm; this solution was shaken for 15 minutes on a sonicator. Portions of the stock solution were placed in 15 ml test tubes, and portions of bovine serum were added to provide the desired dilution of the test compound. A dental wick was placed in each test tube and the serum allowed to saturate the wick.
For the adult stable fly test, the saturated wick was placed on a filter paper in a petri dish, and approximately 10 chilled live, hungry stable flies were placed on the center of the dish bottom. The dish was covered and allowed to incubate at 27°C and 60% relative humidity for 48 hours. Mortality readings were made at each of 24 and 48 hours, and adjusted for any mortality in the vehicle control to determine percent efficacy against adult stable fly.

Row | Molecule | % MORTALITY ([2]; RATE 400 (ppm), 6 days) | Percentage of ASF killed at 100 ppm [3] | other results
1 | CCC1CCCC(OC2CCC(N(C)C)C(C)O2)C(C)C(=O)C2=CC3C4CC(OC5OC(C)C(OC)C(OC)C5OC)CC4[C@@]4(C)O[C@H]4C3C2CC(=O)O1 (stereo partly drawn) [Example F8a, (5S,6R)-Epoxy Spinosyn D] | 100% |  | % MORTALITY [1]: 90%
2 | CCC1CCCC(OC2CCC(N(C)C)C(C)O2)C(C)C(=O)C2=CC3C4CC(O)CC4CCC3C2CC(=O)O1 (stereo not shown) [Example F19, 5,6-Dihydro Spinosyn A 9-Psa] | 100% |  | 
3 | CCC1CCCC(OC2CCC(N(C)C)C(C)O2)C(C)C(=O)[C@H]2CC3C4CC(OC5OC(C)C(OC)CC5OC)CC4CCC3C2CC(=O)O1 (stereo partly drawn) [Example D3, (14S)-5,6,13,14-Tetrahydro-3'-deoxy Spinosyn J] |  | 100% | % MORTALITY ([2]; RATE 64 (unit not given), 8640 min): 95%
4 | 5,6-Dihydro Spinosyn J [Example F21] | 100% | 100% | 
5 | CC[C@H]1CCC[C@H](O[C@H]2CC[C@H](NC)[C@@H](C)O2)[C@@H](C)C(=O)C2=C[C@H]3[C@@H]4C[C@H](O[C@@H]5O[C@@H](C)[C@H](OC)[C@@H](OC)[C@H]5OC)C[C@H]4CC[C@H]3[C@@H]2CC(=O)O1 [Example F24, 5,6-Dihydro Spinosyn B] | 100% | 100% | % MORTALITY [1]: 100%
6 | CCC1CCCC(O[Si](C)(C)C)C(C)C(=O)C2=CC3C4CC(OC5OC(C)C(OC)C(OC)C5OC)CC4C4OC4C3C2CC(=O)O1 [Example E2, (5S,6R)-5,6-Epoxy-17-O-trimethylsilyl Spinosyn A 17-Psa] |  |  | % MORTALITY ([2]; RATE 80 (unit not given), 8640 min): 35%
7 | CCOC1C(OC2CC3CCC4C5CC(=O)OC(CC)CCCC(OC6CCC(N(C)C)C(C)O6)C(C)C(=O)C5=CC4C3C2)OC(C)C(OC)C1OC (stereo not shown) [Example A7, 5,6-Dihydro-2'-O-ethyl Spinosyn H] | 100% | 100% | % MORTALITY [1]: 100%
8 | CCC1CCCC(OC2CCC(N(C)C)C(C)O2)C(C)C(=O)C2=CC3C4CC(OC5OC(C)C(OC)C(OC)C5OC(=O)c5ccc(C(F)(F)F)cc5)CC4[C@@]4(C)O[C@H]4C3C2CC(=O)O1 (stereo partly drawn) [Example A2, (5S,6R)-Epoxy-2'-O-(p-trifluoromethyl)benzoyl Spinosyn Q] | 100% | 100% | 
9 | CCC1CCCC(OC2CCC(N(C)C)C(C)O2)C(C)C(=O)C2=CC3C4CC(OC5OC(C)C(OC)C(OC)C5OC)CC4[C@@H](SC)[C@H](OC(C)=O)C3C2CC(=O)O1 (stereo partly drawn) [Example F16, (5R,6R)-5-Acetoxy-6-thiomethoxy Spinosyn A] | 100% | 100% | 
10 | CCCCOC1C(OC)C(C)OC(OC2CC3CCC4C5CC(=O)OC(CC)CCCC(OC6CCC(N(C)C)C(C)O6)C(C)C(=O)C5=CC4C3C2)C1OC (stereo not shown) [Example A5, 5,6-Dihydro-3'-O-n-butyl Spinosyn J] | 100% |  | 
11 | CCC1CCCC(OC2CCC(N(C)C)C(C)O2)C(C)C(=O)C2=CC3C4CC(OC5OC(C)C(OC)C(OC)C5OC)CC4[C@@H](OC(=O)C(Cl)(Cl)Cl)[C@@H](OC(=O)C(Cl)(Cl)Cl)C3C2CC(=O)O1 (stereo partly drawn) [Example F13b, (5S,6R)-5,6-bis(trichloroacetoxy) Spinosyn A] | 60% |  | 
12 | CCC1CCCC(OC2CCC(N(C)C)C(C)O2)C(C)C(=O)C2=CC3C4CC(OC5OC(C)C(OC)C(OC)C5OC)CC4[C@@H](Br)[C@H](Br)C3C2CC(=O)O1 (stereo partly drawn) [Example F14, (5R,6R)-5,6-Dibromo Spinosyn A] | 60% | 100% | 
13 | CCCOC1C(OC2CC3CCC4C5CC(=O)OC(CC)CCCC(OC6CCC(N(C)C)C(C)O6)C(C)C(=O)C5=CC4C3C2)OC(C)C(OC)C1OC (stereo not shown) [Example A8, 5,6-Dihydro-2'-O-n-propyl Spinosyn H] | 100% | 100% | % MORTALITY [1]: 100%
14 | (5R,6R)-6-Bromo-5-hydroxy Spinosyn J [Example F18] | 100% | 100% | 
15 | CCC1CCCC(OC2CCC(N(C)C)C(C)O2)C(C)C(=O)C2=CC3C4CC(OC5OC(C)C(OC)C(OC)C5OC)CC4C[C@H](O)C3C2CC(=O)O1 (stereo partly drawn) [Example F15a, (5S)-5,6-dihydro-5-hydroxy Spinosyn A] | 100% |  | 
16 | CC[C@H]1CCC[C@H](O[C@H]2CC[C@H](N(C)C)[C@@H](C)O2)[C@@H](C)C(=O)C2=C[C@H]3[C@@H]4C[C@H](O[C@@H]5O[C@@H](C)[C@H](OC)[C@@H](OC)[C@H]5OC)C[C@H]4CC[C@H]3[C@@H]2CC(=O)O1 [Example F23, 5,6-Dihydro Spinosyn A Hemiglutarate salt] | 100% | 100% | % MORTALITY [1]: 100%
17 | (5S,6R)-Epoxy-Spinosyn Q [Example F25] | 100% |  | 
18 | CCC1CCCC(OC2CCC(N(C)C)C(C)O2)C(C)C(=O)C2=CC3C4CC(OC5OC(C)C(OC)C(OC)C5OC)CC4[C@@H](S(C)(=O)=O)[C@H](OC(C)=O)C3C2CC(=O)O1 (stereo partly drawn) [Example F17, (5R,6R)-5-Acetoxy-6-methylsulfonyl Spinosyn A] | 100% | 100% | 
19 | CC[C@H]1CCC[C@H](O)[C@@H](C)C(=O)C2=C[C@H]3[C@@H]4C[C@H](O[C@@H]5O[C@@H](C)[C@H](OC)[C@@H](OC)[C@H]5OC)C[C@H]4CC[C@H]3[C@@H]2CC(=O)O1 [Example F20, 5,6-Dihydro Spinosyn A 17-Psa] |  | <50% | 
20 | (5R,6R)-5,6-dibromo Spinosyn B [Example F11b] | 100% | 100% | 
21 | CCCOC1C(OC)C(C)OC(OC2CC3CCC4C5CC(=O)OC(CC)CCCC(OC6CCC(N(C)C)C(C)O6)C(C)C(=O)C5=CC4C3C2)C1OC (stereo not shown) [Example A4, 5,6-Dihydro-3'-O-n-propyl Spinosyn J] | 100% |  | % MORTALITY [1]: 100%
22 | CCOC1C(OC)C(C)OC(OC2CC3CCC4C5CC(=O)OC(CC)CCCC(OC6CCC(N(C)C)C(C)O6)C(C)C(=O)C5=CC4C3C2)C1OC (stereo not shown) [Example A3, 5,6-Dihydro-3'-O-ethyl Spinosyn J] | 100% |  | % MORTALITY [1]: 100%
23 | CC[C@H]1CCC[C@H](O)[C@@H](C)C(=O)C2=C[C@H]3[C@@H]4C[C@H](O[C@@H]5O[C@@H](C)[C@H](OC)[C@@H](OC)[C@H]5OC)C[C@H]4C(Br)C(Br)[C@H]3[C@@H]2CC(=O)O1 (stereo partly shown) [Example F5, 5,6-Dibromo Spinosyn A 17-Psa] |  |  | Percentage of ASF killed at 10 ppm [3]: <50%
24 | CC[C@H]1CCC[C@H](O[C@H]2CC[C@H](N(C)C)[C@@H](C)O2)[C@@H](C)C(=O)[C@@H]2C[C@@H]3[C@@H](CC[C@@H]4C[C@@H](O[C@@H]5O[C@@H](C)[C@H](OC)[C@@H](OC)[C@H]5OC)C[C@H]43)[C@@H]2CC(=O)O1 [Example D2, (14R)-5,6,13,14-Tetrahydro Spinosyn A] |  | 100% | Percentage of ASF killed at 10 ppm [3]: <50%
25 | 5,6-Dihydro Derivative of Compound 9-O-(2,3,4-Tri-O-ethyl-α-L-rhamnosyl) Spinosyn A 9-Psa [Example A1] | 100% |  | % MORTALITY [1]: 100%
26 | 5,6-cis Dihydroxy-5,6-dihydro Spinosyn B [Example F12] | 100% | 100% | 
27 | CCC1CCCC(OC2CCC(N(C)C)C(C)O2)C(C)C(=O)C2=CC3C4CC(OC5OC(C)C(OC)C(OC)C5O)CC4CCC3C2CC(=O)O1 (stereo not shown) [Example F22, 5,6-Dihydro Spinosyn H] | 100% | 100% | 
28 | CC[C@H]1CCC[C@H](O[C@H]2CCC(=O)[C@@H](C)O2)[C@@H](C)C(=O)C2=C[C@H]3[C@@H]4C[C@H](O[C@@H]5O[C@@H](C)[C@H](OC)[C@@H](OC)[C@H]5OC)C[C@H]4[C@@H](Br)[C@H](Br)[C@H]3[C@@H]2CC(=O)O1 [Example F11a, (5R,6R)-5,6-dibromo-4''-keto Spinosyn A] |  | <50% | 
29 | dichloroketene acetal of (5S,6R)-5,6-dihydroxy Spinosyn A [Example F13a] | 100% |  | 
